Test results from patent US8728754B1, “Use of proteins isolated from Pseudomonas to control molluscs” (priority 2013, dated 2014).

Columns and labels:
[1] = test system: CL145A (ATCC 55799); test: Antibiotic resistance profile (antibiotic discs on Mueller-Hinton Agar); settings: for Suppresses growth of CL145A: 25° C., 72 hours; for CL145A resistant or sensitive to the antibiotic: antibiotic disc, 72 hours incubation
Procedure: One glycerol stock vial of CL145A was equally distributed onto Mueller-Hinton Agar plates (100 μl per plate) and spread on the plate using a sterile cell spreader. Antibiotic discs were then placed onto the plates along with a blank sterile disc. Plates were incubated at 25° C. in the dark for 72 hours.

[2] = test system: mussels; test: Mussel bioassay in scintillation vials; format: in vivo
Procedure: Mussel bioassays were performed in twenty milliliter scintillation vials. Ten small mussels (approximately 1 cm long) were incubated in the mussel water (10 mL) for 24 hr first, then the mussel water (10 mL) was changed freshly before test cell lysis was added. Cell lysis or proteins (maximal 500 μL) was added into each vial. After 24 hr, the mussel water with cell lysis or proteins was changed with clean mussel water. Then, mussel water was changed every 24 hr with clean mussel water. Dead mussels were taken away every day and mussel mortality was calculated by number of dead mussel divided by the number of total mussels.

## Penicillin
[1]; 10 μg disc
  Suppresses growth of CL145A: No
[1]
  CL145A resistant or sensitive to the antibiotic: resistant

## O=C(N[C@H](CO)[C@H](O)c1ccc([N+](=O)[O-])cc1)C(Cl)Cl [Chloramphenicol]
[1]; 30 μg disc
  Suppresses growth of CL145A: No
[1]
  CL145A resistant or sensitive to the antibiotic: resistant

## CC1(C)S[C@@H]2[C@H](NC(=O)[C@H](N)c3ccccc3)C(=O)N2[C@H]1C(=O)O [Ampicillin]
[1]; 10 μg disc
  Suppresses growth of CL145A: No
[1]
  CL145A resistant or sensitive to the antibiotic: resistant

## CO/N=C(\C(=O)N[C@@H]1C(=O)N2C(C(=O)O)=C(COC(N)=O)CS[C@H]12)c1ccco1 [Cefuroxime]
[1]; 30 μg disc
  Suppresses growth of CL145A: No
[1]
  CL145A resistant or sensitive to the antibiotic: resistant

## CCN1CCN(C(=O)N[C@@H](C(=O)N[C@@H]2C(=O)N3[C@@H]2SC(C)(C)[C@@H]3C(=O)O)c2ccccc2)C(=O)C1=O [Piperacillin]
[1]; 100 μg disc
  Suppresses growth of CL145A: Yes
[1]
  CL145A resistant or sensitive to the antibiotic: sensitive

## Gentamicin
[1]; 10 μg disc
  Suppresses growth of CL145A: Yes
[1]
  CL145A resistant or sensitive to the antibiotic: sensitive

## CC[C@H]1OC(=O)[C@H](C)[C@@H](O[C@H]2C[C@@](C)(OC)[C@@H](O)[C@H](C)O2)[C@H](C)[C@@H](O[C@@H]2O[C@H](C)C[C@H](N(C)C)[C@H]2O)[C@](C)(O)C[C@@H](C)C(=O)[C@H](C)[C@@H](O)[C@]1(C)O [Erythromycin]
[1]; 15 μg disc
  Suppresses growth of CL145A: No
[1]
  CL145A resistant or sensitive to the antibiotic: resistant

## Sulphamethoxazole-Trimethoprim
[1]; 23.75/25 μg disc
  Suppresses growth of CL145A: Yes
[1]
  CL145A resistant or sensitive to the antibiotic: sensitive

## fumarate hydratase Class II (or fumarase) [Protein B]
[2]; 4 ppm, 7th day
  Mussel mortality at 7th day: 60%
[2]; in vivo
  Activity in mussel bioassay of proteins and fractions dosed after gel analysis: active

## [H]/N=C(/N)N[C@H]1[C@H](O)[C@@H](O)[C@H](O[C@@H]2O[C@@H](C)[C@](O)(C=O)[C@H]2O[C@@H]2O[C@@H](CO)[C@H](O)[C@@H](O)[C@@H]2NC)[C@@H](N/C(N)=N\[H])[C@@H]1O [Streptomycin]
[1]; 10 μg disc
  Suppresses growth of CL145A: No
[1]
  CL145A resistant or sensitive to the antibiotic: resistant
